Source: article PMC11786723, “Endoplasmic reticulum membrane remodeling by targeting reticulon-4 induces pyroptosis to facilitate antitumor immune” (Protein & Cell, 2024)

Assays:
reticulon-4 (RTN4/Nogo) [1] = biological target: T1, reticulon-4 (RTN4/Nogo) (Homo sapiens, UniProt Q9NQC3); assay: microscale thermophoresis (MST); supported by competitive pull-down; format: binding; design: RTN4B isoform focused on; MST construct printed only as RTN4
T1 sequence (Q9NQC3 1-373 isoform Q9NQC3-2): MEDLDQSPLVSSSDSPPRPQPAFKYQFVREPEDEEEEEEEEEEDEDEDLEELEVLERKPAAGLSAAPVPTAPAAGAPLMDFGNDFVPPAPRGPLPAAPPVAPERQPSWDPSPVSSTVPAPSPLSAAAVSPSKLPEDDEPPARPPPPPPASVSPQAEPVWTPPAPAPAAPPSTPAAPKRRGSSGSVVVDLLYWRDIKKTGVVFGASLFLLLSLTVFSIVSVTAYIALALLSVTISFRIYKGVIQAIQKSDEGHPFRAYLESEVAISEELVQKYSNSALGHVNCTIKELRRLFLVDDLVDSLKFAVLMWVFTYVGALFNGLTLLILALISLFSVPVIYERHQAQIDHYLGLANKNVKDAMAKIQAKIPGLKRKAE

reticulon-4 (RTN4/Nogo) [2] = biological target: T1, reticulon-4 (RTN4/Nogo); assay: microscale thermophoresis (MST); HuProt human proteome microarray and competitive pull-down; format: binding; design: RTN4B isoform predominantly captured in pull-down; MST construct printed only as RTN4

Compound | Kd (reticulon-4 (RTN4/Nogo) [1]) | Kd (reticulon-4 (RTN4/Nogo) [2])
COc1c(O)cc2oc3cc(O)c(CC=C(C)C)c(O)c3c(=O)c2c1CC=C(C)C [α-MG, α-mangostin] | 0.0121 ± 0.00128 µM | –
biotin-α-MG | – | 0.039 ± 0.00109 µM
